Among the data in patent US20140187548A1, “6 SUBSTITUTED IMIDAZOPYRAZINES FOR USE AS MPS-1 AND TKK INHIBITORS IN THE TREATMENT OF HYPERPROLIFERATIVE DISORDERS” (BAYER INTELLECTUAL PROPERTY GMBH, priority 2010, published 2014) are IC50 values, retold here.

For this assay, the target named is T1, human kinase Mps-1 (Homo sapiens, UniProt P33981).
T1 construct: N-terminally GST-tagged human full length recombinant Mps-1 kinase; GST (N); purchased Invitrogen, Karslruhe, Germany PV4071
T1 sequence (P33981 1-857): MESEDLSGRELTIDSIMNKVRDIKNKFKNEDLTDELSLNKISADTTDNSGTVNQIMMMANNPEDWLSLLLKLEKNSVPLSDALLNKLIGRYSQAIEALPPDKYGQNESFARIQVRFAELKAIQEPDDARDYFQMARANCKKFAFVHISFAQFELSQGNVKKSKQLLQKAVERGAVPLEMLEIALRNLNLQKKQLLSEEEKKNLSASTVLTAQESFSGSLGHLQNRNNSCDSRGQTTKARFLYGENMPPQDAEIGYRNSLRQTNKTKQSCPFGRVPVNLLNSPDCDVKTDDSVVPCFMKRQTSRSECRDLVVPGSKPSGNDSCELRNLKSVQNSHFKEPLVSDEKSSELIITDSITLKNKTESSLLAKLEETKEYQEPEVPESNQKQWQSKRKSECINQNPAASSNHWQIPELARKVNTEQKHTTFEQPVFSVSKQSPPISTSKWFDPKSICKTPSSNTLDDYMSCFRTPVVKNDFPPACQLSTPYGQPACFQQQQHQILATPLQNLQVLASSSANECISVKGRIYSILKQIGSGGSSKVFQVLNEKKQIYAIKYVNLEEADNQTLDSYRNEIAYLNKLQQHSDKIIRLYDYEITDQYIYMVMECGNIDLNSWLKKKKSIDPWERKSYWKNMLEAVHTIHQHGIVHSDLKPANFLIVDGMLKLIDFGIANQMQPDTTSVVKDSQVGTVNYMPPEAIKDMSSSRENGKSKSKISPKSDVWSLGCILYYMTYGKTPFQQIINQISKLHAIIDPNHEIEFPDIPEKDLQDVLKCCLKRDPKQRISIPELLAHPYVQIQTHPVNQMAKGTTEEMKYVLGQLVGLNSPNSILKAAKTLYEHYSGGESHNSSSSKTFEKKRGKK
In words: Mps-1 kinase assay (TR-FRET). The settings on record: N-terminally GST-tagged human full length recombinant Mps-1; 10 μM ATP; 1 μM peptide substrate; 15 min pre-incubation; 60 min at 22° C. Type of assay: biochemical. Put shortly:
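TR-FRET read-out: after 1 h binding at 22° C, Eu-labelled anti-phospho-Ser/Thr antibody transfers to SA-XLent on the phosphorylated biotinylated peptide. The enzyme is GST-tagged full-length human Mps-1, typically about 1 nM final, in the linear range.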
Background: In TR-FRET formats the signal depends on donor and acceptor labels being close together.
As usually defined, the IC50 is the concentration needed to halve the response being measured. Turning to `O=C(NC1CC1)c1ccc(-c2cnc3c(NCc4ccccc4)nc(-c4ccccc4)cn23)cc1` [Example 2-15, 4-[8-(benzylamino)-6-phenylimidazo[1,2-a]pyrazin-3-yl]-N-cyclopropyl-benzamide], the IC50 was found to be 3.8 nM.
For `CCNc1nc(-c2ccccc2)cn2c(-c3ccc(C(=O)NC4CC4)cc3)cnc12` [Example 2-16, N-cyclopropyl-4-[8-(ethylamino)-6-phenylimidazo [1,2-a]pyrazin-3-yl]benzamide] the value was 3.3 nM.
With `O=C(NC1CC1)c1ccc(-c2cnc3c(NCCCO)nc(-c4ccccc4)cn23)cc1` [Example 2-17, N-cyclopropyl-4-{8-[(3-hydroxypropyl)amino]-6-phenylimidazo[1,2-a]pyrazin-3-yl}benzamide], the IC50 is 1.6 nM.
As for `CN(C)CCCNc1nc(-c2ccccc2)cn2c(-c3ccc(C(=O)NC4CC4)cc3)cnc12` [Example 2-18, N-cyclopropyl-4-(8-{[3-(dimethylamino)propyl]amino}-6-phenylimidazo[1,2-a]pyrazin-3-yl)benzamide], the figure is 26.8 nM; as for `CC(=O)NCCNc1nc(-c2ccccc2)cn2c(-c3ccc(C(=O)NC4CC4)cc3)cnc12` [Example 2-19, 4-(8-{[2-(acetylamino)ethyl]amino}-6-phenylimidazo[1,2-a]pyrazin-3-yl)-N-cyclopropyl-benzamide], 8.1 nM; as for `O=C(NC1CC1)c1ccc(-c2cnc3c(NCc4ccc(C(F)(F)F)cc4)nc(-c4ccccc4)cn23)cc1` [Example 2-20, N-cyclopropyl-4-(6-phenyl-8-{[4-(trifluoromethyl)benzyl]amino}imidazo[1,2-a]pyrazin-3-yl)benzamide], 38.6 nM.
For the molecule `NS(=O)(=O)c1ccc(CCNc2nc(-c3ccccc3)cn3c(-c4ccc(C(=O)NC5CC5)cc4)cnc23)cc1` [Example 2-21, N-cyclopropyl-4-(6-phenyl-8-{[2-(4-sulfamoylphenyl)ethyl]amino}imidazo[1,2-a]pyrazin-3-yl)benzamide], the IC50 is 9.1 nM.
For `O=C(NC1CC1)c1ccc(-c2cnc3c(NCc4ccc(OC(F)(F)F)cc4)nc(-c4ccccc4)cn23)cc1` [Example 2-22, N-cyclopropyl-4-(6-phenyl-8-{[4-(trifluoromethoxy)benzyl]amino}imidazo[1,2-a]pyrazin-3-yl)benzamide] the value was 217 nM; for `O=C(NC1CC1)c1ccc(-c2cnc3c(NCC4CC4)nc(-c4ccccc4)cn23)cc1` [Example 2-23, N-cyclopropyl-4-{8-[(cyclo-propylmethyl)amino]-6-phenylimidazo[1,2-a]pyrazin-3-yl}benzamide], 2.7 nM.
`O=C(NC1CC1)c1ccc(-c2cnc3c(NCCc4ccccn4)nc(-c4ccccc4)cn23)cc1` [Example 2-24, N-cyclopropyl-4-(6-phenyl-8-{[2-(pyridin-2-yl)ethyl]amino}imidazo[1,2-a]pyrazin-3-yl) benzamide]: the IC50 stood at 10.3 nM.
Take `O=C(NC1CC1)c1ccc(-c2cnc3c(NCCN4CCCC4)nc(-c4ccccc4)cn23)cc1` [Example 2-25, N-cyclopropyl-4-(6-phenyl-8-{[2-(pyrrolidin-1-yl)ethyl]amino}imidazo[1,2-a]pyrazin-3-yl)benzamide]: the IC50 was 27.4 nM.
For the molecule `NS(=O)(=O)c1ccc(CNc2nc(-c3ccccc3)cn3c(-c4ccc(C(=O)NC5CC5)cc4)cnc23)cc1` [Example 2-26, N-cyclopropyl-4-{6-phenyl-8-[(4-sulfamoylbenzyl)amino]imidazo[1,2-a]pyrazin-3-yl}benzamide], the IC50 was 5.6 nM.
In the case of `O=C(NC1CC1)c1ccc(-c2cnc3c(NCc4ccccn4)nc(-c4ccccc4)cn23)cc1` [Example 2-27, N-cyclopropyl-4-{6-phenyl-8-[(pyridin-2-ylmethyl)amino]imidazo[1,2-a]pyrazin-3-yl} benzamide], the IC50 came to 3.3 nM.
Regarding `O=C(NC1CC1)c1ccc(-c2cnc3c(NCc4cccnc4)nc(-c4ccccc4)cn23)cc1` [Example 2-28, N-cyclopropyl-4-{6-phenyl-8-[(pyridin-3-ylmethyl)amino]imidazo[1,2-a]pyrazin-3-yl} benzamide], the IC50 was found to be 2.2 nM.
For `CCN(CC)CCCNc1nc(-c2ccccc2)cn2c(-c3ccc(C(=O)NC4CC4)cc3)cnc12` [Example 2-29, N-cyclopropyl-4-(8-{[3-(diethylamino)propyl]amino}-6-phenylimidazo[1,2-a]pyrazin-3-yl)benzamide], the IC50 came out at 14.8 nM.
As for `NC(=O)CNc1nc(-c2ccccc2)cn2c(-c3ccc(C(=O)NC4CC4)cc3)cnc12` [Example 2-30, 4-{8-[(2-amino-2-oxoethyl)amino]-6-phenylimidazo[1,2-a]pyrazin-3-yl}-N-cyclopropyl-benzamide], the figure is 19 nM.
As to `O=C(NC1CC1)c1ccc(-c2cnc3c(NCCCc4ccccc4)nc(-c4ccccc4)cn23)cc1` [Example 2-31, N-cyclopropyl-4-{6-phenyl-8-[(3-phenylpropyl)amino]imidazo[1,2-a]pyrazin-3-yl} benzamide], the half-maximal inhibitory concentration (IC50) is 34.8 nM.
With `O=C(NC1CC1)c1ccc(-c2cnc3c(NCc4ccc5c(c4)OCO5)nc(-c4ccccc4)cn23)cc1` [Example 2-32, 4-{8-[(1,3-benzodioxol-5-ylmethyl)amino]-6-phenylimidazo[1,2-a]pyrazin-3-yl}-N-cyclopropyl-benzamide], the IC50 came to 5.8 nM.
Take `COC(=O)CCNc1nc(-c2ccccc2)cn2c(-c3ccc(C(=O)NC4CC4)cc3)cnc12` [Example 2-33, methyl N-{3-[4-(cyclopropylcarbamoyl)phenyl]-6-phenylimidazo[1,2-a]pyrazin-8-yl}-beta-alaninate]: the IC50 worked out at 2.3 nM.
As for `CN(C)CCNc1nc(-c2ccccc2)cn2c(-c3ccc(C(=O)NC4CC4)cc3)cnc12` [Example 2-34, N-cyclopropyl-4-(8-{[2-(dimethylamino)ethyl]amino}-6-phenylimidazo[1,2-a]pyrazin-3-yl)benzamide], the IC50 was 35.7 nM.
For `N#CCCNc1nc(-c2ccccc2)cn2c(-c3ccc(C(=O)NC4CC4)cc3)cnc12` [Example 2-35, 4-{8-[(2-cyanoethyl)amino]-6-phenylimidazo[1,2-a]pyrazin-3-yl}-N-cyclopropyl-benzamide] the value was 1 nM; for `O=C(NC1CC1)c1ccc(-c2cnc3c(NCCCN4CCCC4)nc(-c4ccccc4)cn23)cc1` [Example 2-36, N-cyclopropyl-4-(6-phenyl-8-{[3-(pyrrolidin-1-yl)propyl]amino}imidazo[1,2-a]pyrazin-3-yl)benzamide], 28.4 nM.
Consider `CCN(CC)CCCCNc1nc(-c2ccccc2)cn2c(-c3ccc(C(=O)NC4CC4)cc3)cnc12` [Example 2-37, N-cyclopropyl-4-(8-{[4-(diethylamino)butyl]amino}-6-phenylimidazo[1,2-a]pyrazin-3-yl)benzamide], for which the IC50 amounted to 14.1 nM.
`CN(C)CCCCNc1nc(-c2ccccc2)cn2c(-c3ccc(C(=O)NC4CC4)cc3)cnc12` [Example 2-38, N-cyclopropyl-4-(8-{[4-(dimethylamino)butyl]amino}-6-phenylimidazo[1,2-a]pyrazin-3-yl)benzamide]: the IC50 turned out to be 13.2 nM.
Consider `O=C(NC1CC1)c1ccc(-c2cnc3c(NCCc4cccs4)nc(-c4ccccc4)cn23)cc1` [Example 2-39, N-cyclopropyl-4-(6-phenyl-8-{[2-(thiophen-2-yl)ethyl]amino}imidazo[1,2-a]pyrazin-3-yl)benzamide], for which the IC50 was 19.4 nM.
